This note sets out measurements from US11453672B2, “Substituted pyrazolo[1,5-a]pyrimidines as tropomyosin receptor kinase inhibitors” (SHENZHEN TARGETRX, INC., priority 2017, dated 2022).

Data set [1] can be described thus: Metabolic stability evaluation, rat liver microsomes. To be noted: SD, pH 7.4, 1 μM compound, 0.5 mg/mL protein, 37° C.; for microsomal CLint at 1 μM: read-out: rat liver microsome CLint; for half-life at 1 μM: read-out: rat liver microsome t1/2. Type of data set: in vitro ADME. On the procedure: (§1) Microsomal experiments: human liver microsomes: 0.5 mg/mL, Xenotech; rat liver microsomes: 0.5 mg/mL, Xenotech; coenzyme (NADPH/NADH): 1 mM, Sigma Life Science; magnesium chloride: 5 mM, 100 mM phosphate buffer agent (pH 7.4).
(§2) Preparation of the stock solution: A certain amount of the powder of the example compounds was accurately weighed and dissolved to 5 mM with DMSO.
(§3) Preparation of phosphate buffer (100 mM, pH 7.4): 150 mL of pre-prepared 0.5 M potassium dihydrogen phosphate solution was mixed with 700 mL of pre-prepared 0.5 M dipotassium hydrogen phosphate solution, and the pH of the mixture was adjusted with 0.5 M dipotassium hydrogen phosphate solution to 7.4. It was diluted 5 times with ultrapure water before use, and magnesium chloride was added to obtain a phosphate buffer (100 mM) containing 100 mM potassium phosphate, 3.3 mM magnesium chloride, and a pH of 7.4.
(§4) A solution of NADPH regeneration system (containing 6.5 mM NADP, 16.5 mM G-6-P, 3 U/mL G-6-P D, 3.3 mM magnesium chloride) was prepared and placed on wet ice before use.
(§5) Preparation of stop solution: acetonitrile solution containing 50 ng/mL propranolol hydrochloride and 200 ng/mL tolbutamide (internal standard). 25057.5 μL of phosphate buffer (pH 7.4) was taken into a 50 mL centrifuge tube, 812.5 μL of human liver microsomes was added, and mixed uniformly to obtain a liver microsome dilution with a protein concentration of 0.625 mg/mL. 25057.5 μL of phosphate buffer (pH 7.4) was taken into a 50 mL centrifuge tube, and 812.5 μL of SD rat liver microsomes was added, and mixed uniformly to obtain a liver microsome dilution with a protein concentration of 0.625 mg/mL.
(§6) Incubation of the sample: The stock solutions of the corresponding compounds were diluted to 0.25 mM as working solutions with an aqueous solution containing 70% acetonitrile before use. 398 μL of human liver microsomes or rat liver microsome dilutions were added to 96-well incubation plates (N=2), and 2 μL of 0.25 mM working solutions were added and mixed uniformly, respectively.
(§7) Determination of metabolic stability: 300 μL of pre-cooled stop solution was added to each well of a 96-well deep well plate, which was placed on ice as a stop plate. The 96-well incubation plate and the NADPH regeneration system were placed in a 37° C. water bath, shaken at 100 rpm, and pre-incubated for 5 min. 80 μL of the incubation solution was removed from each well of the incubation plate, added to the stop plate, and mixed uniformly, and 20 μL of the NADPH regeneration system solution was supplemented as a sample at 0 min. Then, 80 μL of the NADPH regeneration system solution was added to each well of the incubation plate to start the reaction and the timing was started. […] 100 μL of the reaction solution was removed at 10, 30, and 90 min of the reaction, respectively, and added to the stop plate, and the reaction was terminated by vortexing for 3 min. The stop plate was centrifuged at 5000×g for 10 min at 4° C. 100 μL of the supernatant was removed into a 96-well plate to which 100 μL of distilled water was previously added, mixed uniformly, and sample analysis was performed by LC-MS/MS.
(§8) Data analysis: The peak areas of the corresponding compounds and the internal standard were detected by LC-MS/MS system, and the ratios of the peak areas of the compounds to the internal standard were calculated.
For orientation: Microsomes from liver hold many membrane-bound enzymes, among them those of drug oxidation.

The nature of data set [2]: Metabolic stability evaluation, human liver microsomes. Type of data set: in vitro ADME. To be noted: pH 7.4, 1 μM compound, 0.5 mg/mL protein, 37° C.; for microsomal CLint at 1 μM: read-out: human liver microsome CLint; for half-life at 1 μM: read-out: human liver microsome t1/2. On the procedure:
as §1, §2, §3, §4, §5, §6, §7, §8

In the case of `[2H]C1([2H])CC([2H])([2H])[C@@]([2H])(c2cc(F)ccc2F)N1c1ccn2ncc(NC(=O)N3CC[C@H](O)C3)c2n1` [Compound L-7, (S)—N-(5-((R)-2-(2,5-difluorophenyl)pyrrolidin-1-yl-2,3,3,5,5-d2)pyrazolo[1,5-a]pyrimidin-3-yl)-3-hydroxypyrrolidine-1-carboxamide], in data set [1], the microsomal CLint at 1 μM came out at 15.8 µL/min/mg and the half-life at 1 μM was found to be 1.46 h. In data set [2], the microsomal CLint at 1 μM came out at 20.6 µL/min/mg and the half-life at 1 μM came out at 1.12 h.
For `[2H]C1([2H])C[C@H](O)C([2H])([2H])N1C(=O)Nc1cnn2ccc(N3CCC[C@@H]3c3cc(F)ccc3F)nc12` [Compound L-1, (S)—N-(5-((R)-2-(2,5-difluorophenyl)pyrrolidin-1-yl)-pyrazolo[1,5-a]pyrimidine-3-yl)-3-hydroxypyrrolidine-2,2,5,5-d4-1-carboxamide], in data set [1], the microsomal CLint at 1 μM was determined as 19.2 µL/min/mg and the half-life at 1 μM worked out at 1.2 h. Besides, in data set [2], the microsomal CLint at 1 μM came to 18.2 µL/min/mg and the half-life at 1 μM was 1.27 h.
The matching figures for `O=C(Nc1cnn2ccc(N3CCC[C@@H]3c3cc(F)ccc3F)nc12)N1CC[C@H](O)C1` [LOXO-101, (S)—N-(5-((R)-2-(2,5-difluorophenyl)-pyrrolidin-1-yl)pyrazolo[1,5-a]pyrimidin-3-yl)-3-hydroxypyrrolidine-1-carboxamide, reference compound]: 31.7 µL/min/mg, 1.06 h, 21.3 µL/min/mg and 1.08 h.
Consider `[2H]C1([2H])C[C@H](c2cc(F)ccc2F)N(c2ccn3ncc(NC(=O)N4CC[C@H](O)C4)c3n2)C1` [Compound L-4, (S)—N-(5-((R)-2-(2,5-difluorophenyl)pyrrolidin-1-yl-4,4-d2)pyrazolo[1,5-a]pyrimidin-3-yl)-3-hydroxypyrrolidine-1-carboxamide], for which, in data set [2], the microsomal CLint at 1 μM worked out at 21 µL/min/mg and the half-life at 1 μM was 1.1 h.
In the case of `[2H]C1([2H])C[C@H](O)C([2H])([2H])N1C(=O)Nc1cnn2ccc(N3CCC([2H])([2H])C3([2H])c3cc(F)ccc3F)nc12` (stereo in doubt) [Compound L-3, (S)—N-(5-((R)-2-(2,5-difluorophenyl)pyrrolidin-1-yl-2,3,3-d3)-pyrazolo[1,5-a]pyrimidin-3-yl)-3-hydroxypyrrolidine-2,2,5,5-d4-1-carboxamide], in data set [1], the microsomal CLint at 1 μM stood at 16.8 µL/min/mg and the half-life at 1 μM came to 1.38 h. In data set [2], the microsomal CLint at 1 μM was 19.1 µL/min/mg and the half-life at 1 μM is 1.21 h.
